Laboratory results reported in PMC6272684, “Synthesis, Antiproliferative and Antifungal Activities of 1,2,3-Triazole-Substituted Carnosic Acid and Carnosol Derivatives” (Molecules, 2015).
Like-named read-outs stand apart in the source and are kept apart here.

Experiments:
C. neoformans ATCC 32264 = assay: Antifungal broth microdilution (CLSI M27-A3), growth inhibition; type: cell-based, Cryptococcus neoformans; conditions: for MIC50 (minimum concentration to inhibit 50% of fungal growth), C. neoformans: C. neoformans ATCC 32264
How it was run: (§1)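 Yeast inocula (1–5 × 10^3 CFU/mL) were tested by CLSI M27-A3 broth microdilution in RPMI-1640 at 250–3.9 μg∙mL^−1 (DMSO ≤1%) for 48 h at 30 °C in the dark. Growth was read at OD405, and % inhibition was calculated against growth and sterility controls in triplicate. MIC100 is total inhibition; MIC50 is 50% inhibition.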

[1] = system: gastric epithelial adenocarcinoma (AGS) cells; assay: Antiproliferative assay (MTT reduction, 3 days); type: cell-based, human; conditions: >100 µM considered inactive; for IC50: read-out: IC50 ± SD, AGS
Protocol: (§2) The antiproliferative activity towards the following human cell lines was determined: normal lung fibroblasts (MRC-5), gastric epithelial adenocarcinoma (AGS), lung cancer (SK-MES-1) and bladder carcinoma (J82) cells. […] When comparing the pairs 3–4, 5–6 and 7–8 differing in one CH2 unit in the linker, the activity decreased with linker length.
(§3) All human cell lines used in this work were purchased from the American Type Culture Collection (ATCC, Manasas, VA, USA). Normal lung MRC-5 fibroblasts (CCL-171), SK-MES-1 lung cancer cells (HTB-58) and J82 bladder carcinoma cells (HTB-1) were grown as monolayers in minimum essential Eagle medium (MEM) with Earles’s salts, 2 mM L-glutamine and 1.5 g∙L^−1 sodium bicarbonate. Gastric adenocarcinoma AGS cells (CRL-1739) were grown as monolayers in Ham F-12 medium containing 1 mM L-glutamine and 1.5 g∙L^−1 sodium bicarbonate. All media were supplemented with 10% heat-inactivated FBS, 100 IU∙mL^−1 penicillin and 100 µg∙mL^−1 streptomycin. Cells were grown in a humidified incubator with 5% CO2 in air at 37 °C. For the antiproliferative assay, cells were plated at a density of 5 × 10^4 cells∙mL^−1. Cells were seeded in 96-well plates (100 µL∙well^−1). One day after seeding, cells were treated with medium containing the compounds at concentrations ranging from 0 up to 100 µM during 3 days. The compounds were dissolved in DMSO (1% final concentration) and complete medium. Untreated cells (medium containing 1% DMSO) were used as 100% viability controls. […] Each concentration was tested in sextuplicate and experiments were repeated 2 times. Cell viability was determined by means of the MTT reduction assay at the end of the incubation with the products. The results were transformed to percentage of controls and the IC50 value was obtained adjusting the dose-response curve to a sigmoidal model. The software used was OriginPro 8.1 [30].

[2] = system: bladder carcinoma (J82) cells; assay: Antiproliferative assay (MTT reduction, 3 days); type: cell-based, human; conditions: read-out: IC50 ± SD, J82
Protocol: as §2, §3

C. albicans ATCC 10231 = assay: Antifungal broth microdilution (CLSI M27-A3), growth inhibition; type: cell-based, Candida albicans; conditions: for MIC50 (minimum concentration to inhibit 50% of fungal growth), C. albicans: C. albicans ATCC 10231; for Antifungal activity against C. albicans (in words): at the assayed concentrations (250–3.9 μg∙mL^−1)
How it was run: as §1

[3] = system: normal lung fibroblasts (MRC-5); assay: Antiproliferative assay (MTT reduction, 3 days); type: cell-based, human; conditions: MRC-5 normal fibroblasts, >100 µM considered inactive; for IC50: read-out: IC50 ± SD, MRC-5
Protocol: (§4) The antiproliferative activity towards the following human cell lines was determined: normal lung fibroblasts (MRC-5), gastric epithelial adenocarcinoma (AGS), lung cancer (SK-MES-1) and bladder carcinoma (J82) cells.
as §3, with “Normal lung MRC-5 fibroblasts (CCL-171), SK-MES-1 lung cancer cells (HTB-58) and J82 bladder carcinoma cells (HTB-1) were grown as monolayers in minimum essential Eagle medium (MEM) with Earles’s salts, 2 mM L-glutamine and 1.5 g∙L^−1 sodium bicarbonate. Gastric adenocarcinoma AGS cells (CRL-1739) were grown as monolayers in Ham F-12 medium containing 1 mM L-glutamine and 1.5 g∙L^−1 sodium bicarbonate.” left out, “The results were transformed to percentage of controls and the IC50 value was obtained adjusting the dose-response curve to a sigmoidal model.” left out

[4] = system: lung cancer (SK-MES-1) cells; assay: Antiproliferative assay (MTT reduction, 3 days); type: cell-based, human; conditions: >100 µM considered inactive, read-out: IC50 ± SD, SK-MES-1
Protocol: as §4
as §3, with “Normal lung MRC-5 fibroblasts (CCL-171), SK-MES-1 lung cancer cells (HTB-58) and J82 bladder carcinoma cells (HTB-1) were grown as monolayers in minimum essential Eagle medium (MEM) with Earles’s salts, 2 mM L-glutamine and 1.5 g∙L^−1 sodium bicarbonate. Gastric adenocarcinoma AGS cells (CRL-1739) were grown as monolayers in Ham F-12 medium containing 1 mM L-glutamine and 1.5 g∙L^−1 sodium bicarbonate.” left out, “The results were transformed to percentage of controls and the IC50 value was obtained adjusting the dose-response curve to a sigmoidal model.” left out

[5] = J82 cells, 3 days, MTT, >100 µM considered inactive

| SMILES | Inhibition percentage against C. neoformans ATCC 32264 (C. neoformans ATCC 32264; 3.9 μg∙mL^−1, 48 h) | Inhibition percentage against C. neoformans ATCC 32264 (C. neoformans ATCC 32264; 7.8 μg∙mL^−1, 48 h) | Inhibition percentage against C. neoformans ATCC 32264 (C. neoformans ATCC 32264; 15.6 μg∙mL^−1, 48 h) | Inhibition percentage against C. neoformans ATCC 32264 (C. neoformans ATCC 32264; 31.2 μg∙mL^−1, 48 h) | Inhibition percentage against C. neoformans ATCC 32264 (C. neoformans ATCC 32264; 62.5 μg∙mL^−1, 48 h) | Inhibition percentage against C. neoformans ATCC 32264 (C. neoformans ATCC 32264; 125 μg∙mL^−1, 48 h) | Inhibition percentage against C. neoformans ATCC 32264 (C. neoformans ATCC 32264; 250 μg∙mL^−1, 48 h) | MIC50 (minimum concentration to inhibit 50% of fungal growth), C. neoformans (C. neoformans ATCC 32264) | IC50 [1] | IC50 [2, 5] | Inhibition percentage against C. albicans ATCC 10231 (C. albicans ATCC 10231; 3.9 μg∙mL^−1, 48 h) | Inhibition percentage against C. albicans ATCC 10231 (C. albicans ATCC 10231; 7.8 μg∙mL^−1, 48 h) | Inhibition percentage against C. albicans ATCC 10231 (C. albicans ATCC 10231; 15.6 μg∙mL^−1, 48 h) | Inhibition percentage against C. albicans ATCC 10231 (C. albicans ATCC 10231; 62.5 μg∙mL^−1, 48 h) | Inhibition percentage against C. albicans ATCC 10231 (C. albicans ATCC 10231; 125 μg∙mL^−1, 48 h) | Inhibition percentage against C. albicans ATCC 10231 (C. albicans ATCC 10231; 250 μg∙mL^−1, 48 h) | Inhibition percentage against C. albicans ATCC 10231 (C. albicans ATCC 10231; 31. μg∙mL^−1, 48 h) | MIC50 (minimum concentration to inhibit 50% of fungal growth), C. albicans (C. albicans ATCC 10231) | IC50 [3] | IC50 [4] | other results |
| --- | --- | --- | --- | --- | --- | --- | --- | --- | --- | --- | --- | --- | --- | --- | --- | --- | --- | --- | --- | --- | --- |
| CC(C)c1cc2c3c(c1OC(=O)CCc1cn(CSc4ccccc4)nn1)OC(=O)[C@@]31CCCC(C)(C)[C@@H]1CC2 [Compound 1, 12-O-(3-(((1-phenylthio)methyl)-1H-1,2,3-triazol-4-yl)-propanoyloxy)-11,20-epoxyabieta-8,11,13-trien-20-one] | 0.0% | 0.0% | 0.0% | 3.7 ± 0.1% | 3.9 ± 0.4% | 8.9 ± 0.7% | 11.0 ± 0.5% | >250 µg/mL | 39.2 ± 2.3 µM | > 100 µM | 0.0% | 0.0% | 0.4 ± 0.2% | 3.5 ± 0.3% | 8.2 ± 0.1% | 17.1 ± 0.1% | 1.9 ± 0.3% | >250 µg/mL | 45.1 ± 2.1 µM | 81.7 ± 4.3 µM | Antifungal activity against C. albicans (in words) (C. albicans ATCC 10231): devoid of activity |
| CC(C)c1cc2c3c(c1OC(=O)CCCc1cn(CSc4ccccc4)nn1)OC(=O)C31CCCC(C)(C)C1CC2 (centres unmarked) [Compound 2, 12-O-(4-(((1-phenylthio)methyl)-1H-1,2,3-triazol-4-yl)-butanoyloxy)-11,20-epoxyabieta-8,11,13-trien-20-one] | 1.5 ± 0.1% | 1.9 ± 0.5% | 10.3 ± 1.0% | 11.8 ± 0.3% | 20.7 ± 0.6% | 22.1 ± 1.5% | 74.8 ± 2.8% | 250 µg/mL | 41 ± 2.1 µM | 80.1 ± 4.3 µM | 1.5 ± 0.1% | 1.9 ± 0.5% | 5.2 ± 0.6% | 15.7 ± 1.8% | 27.9 ± 1.8% | 50.7 ± 0.3% | 8.9 ± 1.8% | 250 µg/mL | 46.9 ± 3.4 µM | 76 ± 5.1 µM |  |
| CC(C)c1cc2c3c(c1OC(=O)CCc1cn(Cc4ccccc4)nn1)OC(=O)[C@@]31CCCC(C)(C)[C@@H]1CC2 [Compound 3, 12-O-(3-(1-benzyl-1H-1,2,3-triazol-4-yl)-propanoyloxy)-11,20-epoxyabieta-8,11,13-trien-20-one] | 4.9 ± 0.5% | 9.0 ± 0.3% | 9.7 ± 0.1% | 14.3 ± 2.0% | 16.7 ± 0.5% | 18.4 ± 0.2% | 26.7 ± 1.5% | >250 µg/mL | 48.9 ± 3.9 µM | 74.1 ± 3.9 µM | 5.7 ± 0.8% | 8.1 ± 0.8% | 9.1 ± 1.5% | 14.3 ± 2.0% | 20.2 ± 2.2% | 20.3 ± 3.9% | 11.1 ± 0.4% | >250 µg/mL | 43.4 ± 3 µM | 73 ± 3.9 µM | IC50 ± SD, AGS [1]: active; Antifungal activity against C. albicans (in words) (C. albicans ATCC 10231): devoid of activity; IC50 ± SD, MRC-5 [3]: active |
| CC(C)c1cc2c3c(c1OC(=O)CCCc1cn(Cc4ccccc4)nn1)OC(=O)C31CCCC(C)(C)C1CC2 (centres unmarked) [Compound 4, 12-O-(4-(1-benzyl-1H-1,2,3-triazol-4-yl)-butanoyloxy)-11,20-epoxyabieta-8,11,13-trien-20-one] | 0.0% | 0.0% | 2.3 ± 1.0% | 8.5 ± 1.0% | 9.8 ± 1.1% | 17.8 ± 1.4% | 53.4 ± 2.1% | 250 µg/mL | > 100 µM | > 100 µM | 3.7 ± 0.4% | 4.1 ± 1.7% | 9.5 ± 1.3% | 16.4 ± 2.3% | 28.2 ± 2.1% | 51.6 ± 0.1% | 10.2 ± 1.2% | 250 µg/mL | > 100 µM | > 100 µM | IC50 ± SD, AGS [1]: inactive; IC50 ± SD, MRC-5 [3]: inactive |
| CC(C)c1cc2c(c(OC(=O)CCc3cn(Cc4ccc([N+](=O)[O-])cc4)nn3)c1OC(=O)CCc1cn(Cc3ccc([N+](=O)[O-])cc3)nn1)C13CCCC(C)(C)C1CC2OC3=O (stereo not drawn) [Compound 23, (7β)-11,12-O-(3-(1-(4-nitrobenzyl)-1H-1,2,3-triazol-4-yl)-propanoyloxy)-7,20-epoxyabieta-8,11,13-trien-20-one] | 6.0 ± 0.1% | 11.5 ± 1.5% | 16.2 ± 0.2% | 18.1 ± 0.4% | 32.6 ± 0.8% | 37.7 ± 0.7% |  | 250 µg/mL | 99.4 µM |  | 0.0% | 1.6 ± 0.8% | 3.3 ± 0.6% | 6.7 ± 1.6% | 17.6 ± 1.4% | 25.5 ± 2.5% | 6.0 ± 0.5% | >250 µg/mL |  |  |  |
| COc1cc([C@@H]2c3cc4c(cc3[C@@H](O[C@@H]3O[C@@H]5CO[C@@H](C)O[C@H]5[C@H](O)[C@H]3O)[C@H]3COC(=O)[C@H]23)OCO4)cc(OC)c1O [Etoposide, reference compound] |  |  |  |  |  |  |  |  |  |  |  |  |  |  |  |  |  |  |  |  | IC50 ([1]; Homo sapiens, 72 h): 0.58 ± 0.02 µM; IC50 ([2]; Homo sapiens, J82, 72 h): 3.49 ± 0.16 µM |
